{"source": "patent US4883666A", "about": "“Controlled drug delivery system for treatment of neural disorders” (Massachusetts Institute of Technology, priority 1987, dated 1989)", "key": {"Parkinsonian patients": {"test_system": "Parkinsonian patients", "details": "three patients; continuous i.v. infusion replacing oral levodopa; cited from earlier work"}, "Parkinson's disease": {"test_system": "Parkinson's disease", "details": "systemic application; cited from earlier work"}, "behavioral deficits": {"test_system": "behavioral deficits", "details": "intracerebral injections; cited from earlier work"}, "[1]": {"details": "both in vitro and in vivo; cited from earlier work"}, "[2]": {"test": "Intracerebral dialysis: extracellular fluid dopamine levels in the striatum after implantation of dopamine containing EVA pellets", "procedure": "Male Sprague-Dawley Ras (150-200 g) were anaesthetized with pentobarbitone (60 mg/kg) and placed in a David Kopf stereotaxic frame. The skull was exposed and a 4 mm diameter hole drilled centered at coordinates A +0.4 mm and R 2.6 mm using the Paxinos and Watson coordinates. The right cortex was aspirated using a mild vacuum down to the striatal surface (ventral - 3 mm). Pellets were implanted with the uncoated pore, when present, facing ventrally and imbedded in the body of the striatum. Both control, non-dopamine containing pellets, and dopamine containing (2 mg) pellets were implanted. In vivo release was measured on the third, twentieth and sixty-fifth days. Intracerebral Dialysis Method:\nRats were anaesthetized with pentobarbitone (60 mg/kg) and placed in the Kopf stereotaxic frame. The skull was exposed and a Carnegie Medicin dialysis probe (4 mm membrane length, 0.5 mm o.d., 5,000 m.w. cut off) implanted into the striatum at Paxinos and Watson coordinates A +2.1, R (or L) 1.9, V -7 mm. Probes were perfused with an artificial CSF medium, 1 mM Ca, pH 7.35, at a flow rate of 1.5 microliter/min using a CMA 100 pump. Fifteen minute samples were collected into 5 microliters of 0.5M perchloric acid. The probe was calibrated by measuring the recovery of standards of known concentration, 100 nM. Dialysates were immediately assayed by direct injection onto a highly sensitive reverse-phase, isocratic HPLC with an ESA 5100 coulochem detector. Chromatograms were completed within 11 minutes. After an initial period of \"injury release\", 60 to 90 minutes post probe implantation, stable concentrations of dopamine were measured for a minimum of three […] collections.\nThe first rat had probes inserted into the right striatum on the third and sixty-fifth days and in the left striatum on the sixty-fifth day post polymer implantation. The second rat had probes inserted into both the right and left striata on the twentieth day."}, "[3]": {"source_text": "Ethylene vinyl acetate slabs containing 0%, 30%, 40% and 50% dopamine by weight formed by solvent casting as previously described were punched out to form round discs, approximately 3.0 mm in diameter. These discs were then coated by an additional layer of ethylene vinyl acetate either (i) completely; (ii) completely except for one concave pinhole present on one surface (iii) completely except for two concave pinholes present, one on each surface; (iv) partially, with one surface coated and the other not coated; or (v) not coated at all.\nThe release of dopamine into 5 ml of a 150 mM NaCI, 0.2% EDTA solution was monitored by measuring the absorbance at 280 nm of the solution at various time points and by comparison to a linear standard curve comparing absorbance at 280 nm to concentration of dopamine in the same buffered solution. The results are portrayed as either the absolute mass released over the time course of 65 days or as the amount of dopamine released as a fraction of the total amount present in the pellet.\nSamples of these solutions were injected into High Pressure Liquid Chromatography system designed to measure absolute quantities of dopamine and to distinguish dopamine from its oxidation products or other metabolites."}}, "note": "Where two headings read alike, the source gives them in different places."}
{"molecule": "N[C@@H](Cc1ccc(O)c(O)c1)C(=O)O", "note": "[L-dopa]", "values": [{"measurement": "clinical response", "setting": "Parkinsonian patients", "value": "prolonged and stable clinical response"}, {"measurement": "behavioral symptoms of Parkinson's disease", "setting": "Parkinson's disease", "value": "can be reduced"}]}
{"molecule": "Nerve Growth Factor", "values": [{"measurement": "behavioral deficits", "setting": "behavioral deficits", "value": "reduces behavioral deficits"}]}
{"molecule": "NCCc1ccc(O)c(O)c1", "note": "[dopamine]", "values": [{"measurement": "release from EVA over an extended period of time", "setting": "[1]", "value": "linear, concentration and time-dependent release"}, {"measurement": "persistence of dopamine release into the extracellular fluid of the implanted striatum", "setting": "[2]; not evident on third day, seen by twentieth day", "value": "persists for at least two months"}, {"measurement": "increase in dopamine levels", "setting": "[2]; rat, in vivo", "value": "> 200", "unit": "fold"}, {"measurement": "dopamine concentration in the extracellular fluid (ECF)", "setting": "[2]; rat, in vivo, 28800 min", "value": 30.5, "unit": "nM"}, {"measurement": "dopamine level in the extracellular fluid (ECF)", "setting": "[2]; rat, in vivo, 93600 min", "value": 36, "unit": "nM"}, {"measurement": "level of dopamine in the right striatum relative to normal", "setting": "[2]; third day", "value": "unchanged from normal"}, {"measurement": "substance released that was dopamine (not oxidation products or other metabolites), HPLC", "setting": "[3]; High Pressure Liquid Chromatography of release solutions", "value": "greater than 99.9%"}, {"measurement": "release of dopamine", "setting": "[3]; coated fully except for one hole, 30% loading, up to 65 days in vitro", "value": "linear release"}, {"measurement": "initial release of dopamine (every thirty minutes over several hours)", "setting": "[3]; coated fully except for one hole, 40% dopamine", "value": "release is constant"}, {"measurement": "release of dopamine", "setting": "[3]; disc coated on one side, 30%, 40% or 50% dopamine", "value": "the release is not linear"}, {"measurement": "release of dopamine", "setting": "[3]; disc containing 30%, 40% or 50% dopamine, fully coated, throughout the time period", "value": "no release of dopamine"}, {"measurement": "release of dopamine", "setting": "[3]; disc not coated, 30%, 40% or 50% dopamine", "value": "release occurred rapidly, in a non-linear manner"}, {"measurement": "release of dopamine", "setting": "[3]; fully coated except for two holes, 30% loading", "value": "Virtual linear release"}]}
